# From patent US8394775B2 (Amorepacific Corporation, priority 2005, dated 2013)
# System: procollagen type (I)
# Assay: Promotion of collagen biosynthesis in fibroblasts (procollagen type (I) ELISA)
# Format: cell-based
# Conditions: 24 hours, compared to 100 of the non-treatment group
# Protocol: Firstly, fibroblasts (PromoCell, Germany) were seeded in a 24 well plate at a level of 10^5 per well and cultured until they grew up to 90%. […] The supernatant was taken and examined for increase and decrease of procollagen using procollagen type (I) ELISA kit (proc/; ollagen type (I)). The result is shown in Table 3, in which the synthesis is compared to 100 of the non-treatment group.
row,Structure (SMILES),Synthesis (%) of procollagen [%]
1,"O=C(O[C@@H]1Cc2c(O)cc(O)cc2O[C@@H]1c1cc(O)c(O)c(O)c1)c1cc(O)c(O)c(O)c1 [EGCG, reference compound]",125
2,COc1ccc(-c2oc3c(CC=C(C)C)c(O[C@@H]4O[C@H](CO)[C@@H](O)[C@H](O)[C@H]4O)cc(O)c3c(=O)c2O[C@@H]2O[C@@H](C)[C@H](O)[C@@H](O)[C@H]2O)cc1 [Icariin],117
3,COc1ccc(-c2oc3c(CC=C(C)C)c(O)cc(O)c3c(=O)c2O[C@@H]2O[C@H](C)[C@@H](O)[C@H](O)[C@@H]2O)cc1 [Icariside II],138
4,COc1ccc(-c2oc3c(CC=C(C)C)c(O[C@@H]4O[C@H](CO)[C@@H](O)[C@H](O)[C@H]4O)cc(O)c3c(=O)c2O)cc1 [Icariside I],145

# System: pigment cells (Mel-Ab cell)
# Assay: Inhibition of melanin synthesis using pigment cell of mouse
# Format: cell-based
# Conditions: 10 ppm for continuous 3 days, non-treatment group given as 100.0
# Description: Here, hydroquinone was a positive control.
row,Structure (SMILES),Melanin content (% of untreated control) [%]
1,COc1ccc(-c2oc3c(CC=C(C)C)c(O[C@@H]4O[C@H](CO)[C@@H](O)[C@H](O)[C@H]4O)cc(O)c3c(=O)c2O[C@@H]2O[C@@H](C)[C@H](O)[C@@H](O)[C@H]2O)cc1 [Icariin],84.5
2,COc1ccc(-c2oc3c(CC=C(C)C)c(O)cc(O)c3c(=O)c2O[C@@H]2O[C@H](C)[C@@H](O)[C@H](O)[C@@H]2O)cc1 [Icariside II],38.2
3,COc1ccc(-c2oc3c(CC=C(C)C)c(O[C@@H]4O[C@H](CO)[C@@H](O)[C@H](O)[C@H]4O)cc(O)c3c(=O)c2O)cc1 [Icariside I],38.6

# System: Human keratinocytes HaCaT cell line
# Assay: Inhibition of reactive oxygen species (ROS) production using fluorescent material (DCFH-DA), UVB irradiation
# Format: cell-based
# Conditions: 6.25 uM; HaCaT cells, UVB 30 mJ/cm^2, DCF fluorescence
# Protocol: The cell lines used in the test was Human keratinocytes HaCaT cell line. The cells were distributed to a 96 well black plate for fluorescence measurement at 2.0×10^4 per each well and cultured in DMEM (Dulbeccos Modification of Eagles Medium, FBS 10%) supplemented with penicillin/streptomycin at 37° C., 5% CO2 for 1 day, followed by treatment with test samples. Serum free DMEM (FBS free) supplemented with penicillin/streptomycin as shown in Table 2 was used for cultivation of the medium which had been treated with samples. The cultivation was performed at 37° C., 5% CO2 for 1 day.
# After cultivation of 24 hours with test samples, the plate was washed with HCSS (HEPES-buffered control salt solution) to remove the medium and the HCSS was treated with 100 μl of 20 μM DCFH-DA (2′,7′-dichlorodihydro-fluorescein diacetate, Molecular Probes, Inc). Then, the plate was kept under conditions of 37° C., 5% CO2 for 20 minutes and washed with HCSS. Next, the plate was treated with 100 μl of HCSS comprising samples at different concentrations and the fluorescence intensity of DCF (dichlorofluorescein), which had been oxidized […] at the early stage, was measured using a fluorescent plate reader (Ex=485 nm, Em=530 nm). The fluorescence, right after the irradiation of UVB (30 mJ/cm^2) or 3 hours later of the irradiation, was measured using a fluorescent plate reader (Ex=485 nm, Em=530 nm).
# As control, Trolox was used.
row,Structure (SMILES),Inhibition effect on ROS production (control %) [%]
1,COc1ccc(-c2oc3c(CC=C(C)C)c(O[C@@H]4O[C@H](CO)[C@@H](O)[C@H](O)[C@H]4O)cc(O)c3c(=O)c2O[C@@H]2O[C@@H](C)[C@H](O)[C@@H](O)[C@H]2O)cc1 [Icariin],98.1
2,COc1ccc(-c2oc3c(CC=C(C)C)c(O)cc(O)c3c(=O)c2O[C@@H]2O[C@H](C)[C@@H](O)[C@H](O)[C@@H]2O)cc1 [Icariside II],63.2
3,COc1ccc(-c2oc3c(CC=C(C)C)c(O[C@@H]4O[C@H](CO)[C@@H](O)[C@H](O)[C@H]4O)cc(O)c3c(=O)c2O)cc1 [Icariside I],65.6

# Same assay, conditions: 12.5 uM; HaCaT cells, UVB 30 mJ/cm^2, DCF fluorescence
row,Structure (SMILES),Inhibition effect on ROS production (control %) [%]
1,COc1ccc(-c2oc3c(CC=C(C)C)c(O[C@@H]4O[C@H](CO)[C@@H](O)[C@H](O)[C@H]4O)cc(O)c3c(=O)c2O[C@@H]2O[C@@H](C)[C@H](O)[C@@H](O)[C@H]2O)cc1 [Icariin],89.7
2,COc1ccc(-c2oc3c(CC=C(C)C)c(O)cc(O)c3c(=O)c2O[C@@H]2O[C@H](C)[C@@H](O)[C@H](O)[C@@H]2O)cc1 [Icariside II],62.0
3,COc1ccc(-c2oc3c(CC=C(C)C)c(O[C@@H]4O[C@H](CO)[C@@H](O)[C@H](O)[C@H]4O)cc(O)c3c(=O)c2O)cc1 [Icariside I],61.4

# Same assay, conditions: 25 uM; HaCaT cells, UVB 30 mJ/cm^2, DCF fluorescence
row,Structure (SMILES),Inhibition effect on ROS production (control %) [%]
1,COc1ccc(-c2oc3c(CC=C(C)C)c(O[C@@H]4O[C@H](CO)[C@@H](O)[C@H](O)[C@H]4O)cc(O)c3c(=O)c2O[C@@H]2O[C@@H](C)[C@H](O)[C@@H](O)[C@H]2O)cc1 [Icariin],88.6
2,COc1ccc(-c2oc3c(CC=C(C)C)c(O)cc(O)c3c(=O)c2O[C@@H]2O[C@H](C)[C@@H](O)[C@H](O)[C@@H]2O)cc1 [Icariside II],56.6
3,COc1ccc(-c2oc3c(CC=C(C)C)c(O[C@@H]4O[C@H](CO)[C@@H](O)[C@H](O)[C@H]4O)cc(O)c3c(=O)c2O)cc1 [Icariside I],54.8

# Same assay, conditions: 50 uM; HaCaT cells, UVB 30 mJ/cm^2, DCF fluorescence
row,Structure (SMILES),Inhibition effect on ROS production (control %) [%]
1,COc1ccc(-c2oc3c(CC=C(C)C)c(O[C@@H]4O[C@H](CO)[C@@H](O)[C@H](O)[C@H]4O)cc(O)c3c(=O)c2O[C@@H]2O[C@@H](C)[C@H](O)[C@@H](O)[C@H]2O)cc1 [Icariin],86.3
2,COc1ccc(-c2oc3c(CC=C(C)C)c(O)cc(O)c3c(=O)c2O[C@@H]2O[C@H](C)[C@@H](O)[C@H](O)[C@@H]2O)cc1 [Icariside II],46.6
3,COc1ccc(-c2oc3c(CC=C(C)C)c(O[C@@H]4O[C@H](CO)[C@@H](O)[C@H](O)[C@H]4O)cc(O)c3c(=O)c2O)cc1 [Icariside I],43.8

# System: human skin
# Assay: Whitening effect on human skin after UV-induced darkening
# Format: in vivo
# Conditions: 1% applied on UV-darkened upper arm skin, 10 weeks, colorimeter
# Protocol: Firstly, 12 healthy males were enlisted for the test. They had opaque tape with a 1.5 cm hole attached on the upper arm. UV rays 1.5 to 2 times greater than the minimal erythema dose were irradiated to induce darkening of the skin.
# For 10 weeks, the change was observed. Every 1 week, the color of the skin was measured by colorimeter CR2002 (Japan, Minolta)
# Then, the difference of skin color (ΔL*) between the point when the application of the test material was initiated and the point when the application of the test material was completed was calculated according to the following equation and the result is shown in Table 7. Meanwhile, the whitening effect was determined by comparison of ΔL* between the sample applied part and the control. When ΔL* value is about 2, the whitening of the pigmentation was significant. When ΔL* is over 1.5, it was considered that the sample had whitening effect. ΔL*=(L*at the point when the application is completed)−(L*at the point when the application is initiated) [Equation 4]
row,Structure (SMILES),Whitening effect (ΔL*)
1,COc1ccc(-c2oc3c(CC=C(C)C)c(O[C@@H]4O[C@H](CO)[C@@H](O)[C@H](O)[C@H]4O)cc(O)c3c(=O)c2O[C@@H]2O[C@@H](C)[C@H](O)[C@@H](O)[C@H]2O)cc1 [Icariin],1.10 ± 0.13
2,COc1ccc(-c2oc3c(CC=C(C)C)c(O)cc(O)c3c(=O)c2O[C@@H]2O[C@H](C)[C@@H](O)[C@H](O)[C@@H]2O)cc1 [Icariside II],1.83 ± 0.25
3,COc1ccc(-c2oc3c(CC=C(C)C)c(O[C@@H]4O[C@H](CO)[C@@H](O)[C@H](O)[C@H]4O)cc(O)c3c(=O)c2O)cc1 [Icariside I],1.88 ± 0.17

# System: collagenase
# Assay: Inhibition of collagenase expression in human fibroblasts
# Format: cell-based
# Conditions: molar concentration of 10^−4, 24 hours, compared to 100 of the non-treatment group
# Protocol: (§1) Firstly, human fibroblasts were seeded in a 96-well microtiter plate containing DMEM supplemented with 2.5% fetal bovine serum at a level of 5000 cells per well and cultured until they grew up to 90%.
# Then, the culture fluid was examined for formation of collagenase using a commercially available collagenase measuring kit (Amorsham pharmacia, USA).
# (§2) Firstly, the taken cell culture fluid was added to the 96-well plate having the primary collagenase antibody evenly applied and left for antigen-antibody reaction in a thermostat for 3 hours. After 3 hours, the secondary collagen antibody having a chromophore bonded thereto was added to the 96-well plate and left for reaction for 15 minutes. After 15 minutes, a color developing agent was added and left for 15 minutes. Then, 1M sulphuric acid was added to quit the reaction (color development), upon which the color of the reaction became yellow. The yellow level varied according to the progress of the reaction.
# The absorption of the 96-well plate of the yellow color was measured at 405 nm using a spectrophotometer. The expression of collagenase was calculated according to the following Equation I. Here, the absorption of the control was the absorption of the cell culture fluid taken from the group which had not been treated with the test materials. Expression of collagenase (%) (A/B)×100 [Equation I] • (A: absorption of cells treated with the test materials B: absorption of control)
# Meanwhile, the result of measurement of inhibition effect of the test materials on collagenase expression in human fibroblasts is shown in Table 4, in which in which the expression of collagenase is compared to 100 of the non-treatment group.
row,Structure (SMILES),Expression of collagenase (%)
1,"O=C(O[C@@H]1Cc2c(O)cc(O)cc2O[C@@H]1c1cc(O)c(O)c(O)c1)c1cc(O)c(O)c(O)c1 [EGCG, reference compound]",60
2,COc1ccc(-c2oc3c(CC=C(C)C)c(O[C@@H]4O[C@H](CO)[C@@H](O)[C@H](O)[C@H]4O)cc(O)c3c(=O)c2O[C@@H]2O[C@@H](C)[C@H](O)[C@@H](O)[C@H]2O)cc1 [Icariin],81
3,COc1ccc(-c2oc3c(CC=C(C)C)c(O)cc(O)c3c(=O)c2O[C@@H]2O[C@H](C)[C@@H](O)[C@H](O)[C@@H]2O)cc1 [Icariside II],66
4,COc1ccc(-c2oc3c(CC=C(C)C)c(O[C@@H]4O[C@H](CO)[C@@H](O)[C@H](O)[C@H]4O)cc(O)c3c(=O)c2O)cc1 [Icariside I],64

# System: elastase
# Assay: Inhibition of elastase expression in human fibroblasts
# Format: cell-based
# Conditions: molar concentration of 10^−4, 24 hours, compared to 100 of the non-treatment group
# Protocol: as §1
# Then, the culture fluid was examined for formation of elastase using a commercially available elastase measuring kit (Amorsham pharmacia, USA).
# as §2, with “elastase” for “collagenase”
# The absorption of the 96-well plate of the yellow color was measured at 405 nm using a spectrophotometer. The expression of elastase was calculated according to the following Equation II. Here, the absorption of the control was the absorption of the cell culture fluid taken from the group which had not been treated with the test materials. Expression of elastase (%)=(A/B)×100 [Equation II] • (A: absorption of cells treated with the test materials B: absorption of control)
# Meanwhile, the result of measurement of inhibition effect of the test materials on elastase expression in human fibroblasts is shown in Table 5, in which the expression of elastase is compared to 100 of the non-treatment group.
row,Structure (SMILES),Expression of elastase (%)
1,"O=C(O[C@@H]1Cc2c(O)cc(O)cc2O[C@@H]1c1cc(O)c(O)c(O)c1)c1cc(O)c(O)c(O)c1 [EGCG, reference compound]",68
2,COc1ccc(-c2oc3c(CC=C(C)C)c(O[C@@H]4O[C@H](CO)[C@@H](O)[C@H](O)[C@H]4O)cc(O)c3c(=O)c2O[C@@H]2O[C@@H](C)[C@H](O)[C@@H](O)[C@H]2O)cc1 [Icariin],87
3,COc1ccc(-c2oc3c(CC=C(C)C)c(O)cc(O)c3c(=O)c2O[C@@H]2O[C@H](C)[C@@H](O)[C@H](O)[C@@H]2O)cc1 [Icariside II],63
4,COc1ccc(-c2oc3c(CC=C(C)C)c(O[C@@H]4O[C@H](CO)[C@@H](O)[C@H](O)[C@H]4O)cc(O)c3c(=O)c2O)cc1 [Icariside I],56

# System: not listed separately
# Assay: DPPH test of anti-oxidant effect
# Format: biochemical
# Conditions: read-out: DPPH analysis IC50 (concentration, upon which the absorption is decreased to 50%); 100 μM DPPH in ethanol, 37° C., 30 minutes, absorption at 540 nm
# Protocol: A method for evaluating anti-oxidant effect through change of absorption generated by reduction of the organic radical DPPH (1,1-diphenyl-2-picryl hydrazyl) (while anti-oxidant is oxidized) is used. The change of absorption, which was decreased when the oxidization of DPPH was inhibited, was measured, as compared to the control.
# The absorption was measured at 540 nm. The control sample was synthesized anti-oxidant Trolox, commonly used.
row,Structure (SMILES),IC50 [µM]
1,COc1ccc(-c2oc3c(CC=C(C)C)c(O)cc(O)c3c(=O)c2O[C@@H]2O[C@H](C)[C@@H](O)[C@H](O)[C@@H]2O)cc1 [Icariside II],7.15
2,COc1ccc(-c2oc3c(CC=C(C)C)c(O[C@@H]4O[C@H](CO)[C@@H](O)[C@H](O)[C@H]4O)cc(O)c3c(=O)c2O)cc1 [Icariside I],7.78
